Consider 25 compounds from PubChem BioAssay (NCI).

SMILES strings stand for the structures.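 Step 1: Grow cells in 96-well plates. Step 2: Expose to compound for 48 hours at 5 concentrations. Step 3: Interpolate endpoints linearly; if unreached, use highest concentration. GI50 marks 50% less growth. Definition used: TGI = concentration required for complete inhibition of growth.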

The first assay deals with SK-MEL-28 melanoma. Description: NCI anticancer screen, dose series, 48 h.
Turning to `CCC[CH2][Sn]([CH2]CCC)([O]C(C)=O)[O]C(C)=O`, the GI50 was 1 µM and the TGI stood at 2.27 µM.

In turn, `COC(=O)CCC(=O)N1Cc2cc(C)ccc2N(C(=O)CCC(=O)OC)Cc2cc(C)ccc21` displayed a TGI greater than 100 µM.

The compound `C=C1C(=O)O[C@H]2C[C@@H](C)[C@@H]3CC(=O)OC[C@@]3(C)CC12` (some centres undefined) displayed a TGI of 47.8 µM.

For the compound `c1ccc2[nH]c(-c3ccc(N4CCN(c5ccc(-c6nc7ccccc7[nH]6)cc5)CC4)cc3)nc2c1`, the GI50 is 43 µM and the TGI was greater than 100 µM.

As to `CS(=O)(=O)CC1=Nc2nnc(CCCCCCCc3nnc4n3C(=O)C(CS(C)(=O)=O)=N4)n2C1=O`, the TGI was greater than 100 µM.

In the case of `COc1ccccc1[N-]C(C1=C([O-])c2ccccc2C1=O)c1ccccc1.COc1ccccc1[N-]C(C1=C([O-])c2ccccc2C1=O)c1ccccc1.[Cu+2]` (centres undefined), the GI50 was 16.2 µM and the TGI is greater than 100 µM.

Consider `O=C(NCCCCCCNC(=O)c1cccc2ccccc12)c1cccc2ccccc12`, for which the TGI is greater than 100 µM.

`COC12C=CC(CC1)c1c(O)ccc(O)c12` (centres undefined) showed a TGI greater than 100 µM.

Turning to `CC1=C2CCCC2C/C(=N/Nc2ccc([N+](=O)[O-])cc2[N+](=O)[O-])CC1` (centres undefined), the TGI was greater than 100 µM.

In the case of `Cc1ccc2c(c1)C1(C)OC(CC(N)C1O)O2` (centres undefined), the TGI was greater than 100 µM.

In turn, `COC(=O)[C@@H]1CSC(=S)N1C(=O)C[C@H]1CC=CC[C@H]1CC(=O)Sc1ccccc1` gave a TGI of 32.1 µM.

As for `CN(C)c1ccc2nc3ccc(=[N+](C)C)cc-3oc2c1`, the GI50 is 5.72 µM and the TGI was found to be 45.7 µM.

As to `CC1(Sc2ccccc2)CN(Cc2ccccc2)C1=O` (centres undefined), the TGI was greater than 100 µM.

For `C=C1C(=O)OC2CC3(C)C=CC(=O)C(=C)C3CC12` (centres undefined), the TGI came out at 3.48 µM.

Take `COc1cccc(OC(=O)c2ccccc2Nc2ccnc(C(F)(F)F)c2)c1`: the GI50 is 12.7 µM and the TGI was greater than 100 µM.

In the case of `Cc1ccc(C(=O)Nc2ccc(S(=O)(=O)O)c3cc(S(=O)(=O)O)cc(S(=O)(=O)O)c23)cc1NC(=O)c1cccc(N)c1`, the TGI was greater than 100 µM.

Compound `CCOP(=O)(OCC)C1CCCCOC1=O` (centres undefined) showed a TGI greater than 100 µM.

With `COc1ccc(Cn2nc(-c3cc(OC)c(OC)c(OC)c3)c3c2CCc2cnoc2-3)cc1OC`, the GI50 is 10.3 µM and the TGI is greater than 100 µM.

The subject of another assay is HCT-15 colon. The assay can be described thus: NCI anticancer screen, dose series, 48 h.
With `CN(C)c1ccc2c(NCCCCCCNc3ccnc4cc(N(C)C)ccc34)ccnc2c1`, the TGI is greater than 100 µM.

The compound `Nc1cc(=O)[nH]c(SC2=NC(N)CC(O)C2)n1` (centres undefined) came in with a TGI greater than 100 µM.

Consider `CC(=O)[O][Pb]([O]C(C)=O)([c]1ccccc1)[c]1ccccc1`, for which the GI50 is 7.06 µM and the TGI was greater than 100 µM.

`CN1CCc2c1nc(-c1ccccc1)c1c2N(C)CC1`: the TGI was greater than 100 µM.

Take `CCC[CH2][Sn]([CH2]CCC)([O]C(C)=O)[O]C(C)=O`: the GI50 was 1.43 µM and the TGI worked out at 3.14 µM.

In turn, `COC(=O)CCC(=O)N1Cc2cc(C)ccc2N(C(=O)CCC(=O)OC)Cc2cc(C)ccc21` yielded a TGI greater than 100 µM.

The compound `C=C1C(=O)O[C@H]2C[C@@H](C)[C@@H]3CC(=O)OC[C@@]3(C)CC12` (some centres undefined) showed a TGI greater than 100 µM.

In the case of `c1ccc2[nH]c(-c3ccc(N4CCN(c5ccc(-c6nc7ccccc7[nH]6)cc5)CC4)cc3)nc2c1`, the GI50 was greater than 100 µM and the TGI was greater than 100 µM.

`CS(=O)(=O)CC1=Nc2nnc(CCCCCCCc3nnc4n3C(=O)C(CS(C)(=O)=O)=N4)n2C1=O` gave a TGI greater than 100 µM.

For the compound `COc1ccccc1[N-]C(C1=C([O-])c2ccccc2C1=O)c1ccccc1.COc1ccccc1[N-]C(C1=C([O-])c2ccccc2C1=O)c1ccccc1.[Cu+2]` (centres undefined), the GI50 was 6.51 µM and the TGI was greater than 100 µM.

On to `O=C(NCCCCCCNC(=O)c1cccc2ccccc12)c1cccc2ccccc12`, for which the TGI was greater than 100 µM.

In turn, `COC12C=CC(CC1)c1c(O)ccc(O)c12` (centres undefined) returned a TGI greater than 55.9 µM.

Compound `CC1=C2CCCC2C/C(=N/Nc2ccc([N+](=O)[O-])cc2[N+](=O)[O-])CC1` (centres undefined) displayed a TGI greater than 100 µM.

As for `CC1CC2C(=O)NC(=O)C2c2[nH]c3ccccc3c21` (centres undefined), the TGI is greater than 100 µM.

In the case of `Cc1ccc2c(c1)C1(C)OC(CC(N)C1O)O2` (centres undefined), the TGI is greater than 100 µM.

Compound `COC(=O)[C@@H]1CSC(=S)N1C(=O)C[C@H]1CC=CC[C@H]1CC(=O)Sc1ccccc1` gave a TGI of 32.3 µM.

For the compound `COc1cc(Cn2cc3c(c2)-c2oncc2CC3)cc(OC)c1OC`, the GI50 is 0.0415 µM and the TGI was greater than 100 µM.

Take `CN(C)c1ccc2nc3ccc(=[N+](C)C)cc-3oc2c1`: the GI50 was 3.48 µM and the TGI was greater than 100 µM.

For `CC1(Sc2ccccc2)CN(Cc2ccccc2)C1=O` (centres undefined), the TGI was greater than 100 µM.

`C=C1C(=O)OC2CC3(C)C=CC(=O)C(=C)C3CC12` (centres undefined): the TGI is 4.09 µM.

Take `COc1cccc(OC(=O)c2ccccc2Nc2ccnc(C(F)(F)F)c2)c1`: the GI50 was 2.81 µM and the TGI amounted to 12 µM.

`Cc1ccc(C(=O)Nc2ccc(S(=O)(=O)O)c3cc(S(=O)(=O)O)cc(S(=O)(=O)O)c23)cc1NC(=O)c1cccc(N)c1` showed a TGI greater than 100 µM.

In turn, `CCOP(=O)(OCC)C1CCCCOC1=O` (centres undefined) gave a TGI greater than 100 µM.

On to `COc1ccc(Cn2nc(-c3cc(OC)c(OC)c(OC)c3)c3c2CCc2cnoc2-3)cc1OC`, for which the GI50 was 4.98 µM and the TGI is greater than 100 µM.

The subject of a further assay is OVCAR-3 ovarian. Description: NCI anticancer screen, dose series, 48 h.
In turn, `CN(C)c1ccc2c(NCCCCCCNc3ccnc4cc(N(C)C)ccc34)ccnc2c1` showed a TGI of 27.7 µM.

In turn, `Nc1cc(=O)[nH]c(SC2=NC(N)CC(O)C2)n1` (centres undefined) had a TGI greater than 100 µM.

For `CC(=O)[O][Pb]([O]C(C)=O)([c]1ccccc1)[c]1ccccc1`, the GI50 is 2.4 µM and the TGI was greater than 100 µM.

On to `CN1CCc2c1nc(-c1ccccc1)c1c2N(C)CC1`, for which the TGI was greater than 100 µM.

Regarding `CCC[CH2][Sn]([CH2]CCC)([O]C(C)=O)[O]C(C)=O`, the GI50 was 1.53 µM and the TGI is 3.02 µM.

With `CN(C)CCCNC(=O)c1cc(NC(=O)CCNS(=O)(=O)c2ccc3c(c2)C(=O)c2ccccc2C3=O)cn1C`, the GI50 was greater than 100 µM and the TGI was greater than 100 µM.

In the case of `COC(=O)CCC(=O)N1Cc2cc(C)ccc2N(C(=O)CCC(=O)OC)Cc2cc(C)ccc21`, the TGI is greater than 100 µM.

`C=C1C(=O)O[C@H]2C[C@@H](C)[C@@H]3CC(=O)OC[C@@]3(C)CC12` (some centres undefined) gave a TGI of 74.6 µM.

Turning to `c1ccc2[nH]c(-c3ccc(N4CCN(c5ccc(-c6nc7ccccc7[nH]6)cc5)CC4)cc3)nc2c1`, the GI50 was greater than 100 µM and the TGI was greater than 100 µM.
